Patent US10184137B2, “Method of producing isoprene monomer” (AJINOMOTO CO., INC., priority 2014, dated 2019)
Where a name gives a salt, the structure may show the parent alone.

Tests used:
[1] = molecular target: T1, Methanosaeta concilii mevalonate kinase (mcl), wild type, SEQ ID NO:6, N-terminal His-tag (Methanothrix soehngenii, UniProt F4BZB3); experiment: Km and kcat of mevalonate kinase (mcl-derived); conditions: compared with the other enzymes
T1 sequence (F4BZB3 1-317): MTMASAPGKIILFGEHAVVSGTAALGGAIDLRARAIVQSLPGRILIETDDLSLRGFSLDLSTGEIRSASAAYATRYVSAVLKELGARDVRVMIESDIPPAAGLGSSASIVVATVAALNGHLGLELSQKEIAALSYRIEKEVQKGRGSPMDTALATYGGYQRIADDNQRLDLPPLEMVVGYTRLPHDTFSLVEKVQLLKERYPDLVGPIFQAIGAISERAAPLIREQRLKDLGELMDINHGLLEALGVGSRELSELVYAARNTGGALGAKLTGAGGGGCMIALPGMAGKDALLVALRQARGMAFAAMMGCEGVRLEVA
Method: (§4) Each obtained plasmid was used for transformation of E. coli BL21(DE3). […] When OD600 reached approximately 0.5, 0.1 mM IPTG (for cva, mma, nmr, and sce) or 1 mM (for mcl and mpd) of IPTG was added, and then the mixture was kept at 20° C. overnight to induce the target protein. […] After centrifugation (28,000×g, 30 min), the supernatant was adsorbed onto His-Trap HP (GE Healthcare) to elute the target protein by linear concentration gradient of Imidazol (final concentration 0.5 M). Obtained protein was dialyzed by using an external solution composed of 20 mM Tris-HCl (pH 8.0) containing 1 mM DTT and 50 mM NaCl. Dialyzed protein was designated as purified enzyme. Protein quantity was measured with Bio-RAD protein assay kit and BSA standard condition.
(§5) Decrease in absorbance at 340 nm at 30° C. was measured to determine the enzyme activity. JASCO Corporation's spectrophotometer (V-650) was used in this study. […] Km value was calculated by Lineweaver-Burk plot.

[2] = molecular target: T2, Methanocella paludicola mevalonate kinase (mpd), wild type, SEQ ID NO:1, N-terminal His-tag (Methanocella paludicola, UniProt D1YZ39); experiment: Km and kcat of mevalonate kinase (mpd-derived); conditions: compared with the other enzymes
Method: as §4, §5

[3] = molecular target: T2, Methanocella paludicola mevalonate kinase (mpd), wild type, SEQ ID NO:1, N-terminal His-tag; experiment: Inhibition of mpd-derived mevalonate kinase by DMAPP, GPP, FPP or DPM; format: biochemical; conditions: 1 mM DPM, control 0.148
Method: (§1) Km value was calculated by Lineweaver-Burk plot.
(§2) Since GPP and FPP solutions contain methanol, methanol which was needed to keep the same methanol level at the addition to the reaction system was added to the reaction solution, which was designated as control.
(§3) Effect of 1 mM diphosphomevalonate (DPM) on each enzyme was also studied.

[4] = molecular target: Corynebacterium variabile mevalonate kinase (cva), wild type, SEQ ID NO:3, N-terminal His-tag (Corynebacterium variabile, UniProt A0A0X2NLH5); experiment: Inhibition of cva-derived mevalonate kinase by DMAPP, GPP, FPP or DPM; format: biochemical; conditions: 1 mM DPM, control 0.073275
Method: as §1, §2, §3

[5] = molecular target: T1, Methanosaeta concilii mevalonate kinase (mcl), wild type, SEQ ID NO:6, N-terminal His-tag; experiment: Inhibition of mcl-derived mevalonate kinase by DMAPP, GPP, FPP or DPM; format: biochemical; conditions: mcl; 1 mM DPM; control 0.1373
Method: as §1, §2, §3

[6] = molecular target: T3, Methanosarcina mazei mevalonate kinase (mma), wild type, SEQ ID NO:12, N-terminal His-tag (Methanosarcina mazei, UniProt Q8PW39); experiment: Inhibition of mma-derived mevalonate kinase by DMAPP, GPP, FPP or DPM; format: biochemical
T3 sequence (Q8PW39 1-301): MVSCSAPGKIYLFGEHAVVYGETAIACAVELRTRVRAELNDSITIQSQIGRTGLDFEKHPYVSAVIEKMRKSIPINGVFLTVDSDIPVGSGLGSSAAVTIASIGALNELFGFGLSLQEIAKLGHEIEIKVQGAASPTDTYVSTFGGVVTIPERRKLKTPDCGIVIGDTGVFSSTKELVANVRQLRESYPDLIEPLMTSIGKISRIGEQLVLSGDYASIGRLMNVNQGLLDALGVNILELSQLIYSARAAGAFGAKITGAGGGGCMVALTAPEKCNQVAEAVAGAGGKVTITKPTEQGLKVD
Method: as §1, §2, §3

[7] = molecular target: T4, Saccharomyces cerevisiae mevalonate kinase (sce, ERG12), wild type, NP_013935.1, N-terminal His-tag (Saccharomyces cerevisiae, UniProt P07277); experiment: Inhibition of sce-derived mevalonate kinase by DMAPP, GPP, FPP or DPM; format: biochemical; conditions: control 0.1028
T4 construct: His-tag (N); made in house; host or cells: E. coli BL21(DE3)
T4 sequence (P07277 1-443): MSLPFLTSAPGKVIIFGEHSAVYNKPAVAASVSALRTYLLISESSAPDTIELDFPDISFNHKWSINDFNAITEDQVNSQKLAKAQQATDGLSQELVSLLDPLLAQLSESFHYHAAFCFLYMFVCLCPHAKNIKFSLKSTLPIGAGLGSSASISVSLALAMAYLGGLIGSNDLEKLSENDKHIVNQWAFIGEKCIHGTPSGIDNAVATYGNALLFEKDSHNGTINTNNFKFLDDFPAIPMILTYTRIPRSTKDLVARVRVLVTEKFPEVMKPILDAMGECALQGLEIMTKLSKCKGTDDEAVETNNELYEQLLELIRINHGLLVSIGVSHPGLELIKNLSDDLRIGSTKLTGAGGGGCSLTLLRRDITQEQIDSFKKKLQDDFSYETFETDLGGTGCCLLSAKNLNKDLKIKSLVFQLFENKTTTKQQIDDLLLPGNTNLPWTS
Method: as §1, §2, §3

[8] = molecular target: T5, Nitrosopumilus maritimus mevalonate kinase (nmr), wild type, SEQ ID NO:9, N-terminal His-tag (Nitrosopumilus maritimus, UniProt A9A427); experiment: Examination of product inhibition on nmr-derived mevalonate kinase; format: biochemical; conditions: reaction on 1 mM mevalonate
[9] = molecular target: T5, Nitrosopumilus maritimus mevalonate kinase (nmr), wild type, SEQ ID NO:9, N-terminal His-tag; experiment: Inhibition of nmr-derived mevalonate kinase by DMAPP, GPP, FPP or DPM; format: biochemical; conditions: 1 mM DPM, control 0.2064
Method: as §1, §2, §3

T5 sequence (A9A427 1-313): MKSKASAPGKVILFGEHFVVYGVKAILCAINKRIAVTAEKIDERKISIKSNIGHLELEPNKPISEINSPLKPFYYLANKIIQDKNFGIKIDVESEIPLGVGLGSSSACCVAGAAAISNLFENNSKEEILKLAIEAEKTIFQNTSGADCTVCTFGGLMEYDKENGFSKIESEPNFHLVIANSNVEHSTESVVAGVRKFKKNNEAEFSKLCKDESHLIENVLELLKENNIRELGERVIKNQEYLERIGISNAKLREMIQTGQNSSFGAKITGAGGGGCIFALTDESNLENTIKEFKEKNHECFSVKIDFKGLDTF
T2 sequence (D1YZ39 entry or part of it): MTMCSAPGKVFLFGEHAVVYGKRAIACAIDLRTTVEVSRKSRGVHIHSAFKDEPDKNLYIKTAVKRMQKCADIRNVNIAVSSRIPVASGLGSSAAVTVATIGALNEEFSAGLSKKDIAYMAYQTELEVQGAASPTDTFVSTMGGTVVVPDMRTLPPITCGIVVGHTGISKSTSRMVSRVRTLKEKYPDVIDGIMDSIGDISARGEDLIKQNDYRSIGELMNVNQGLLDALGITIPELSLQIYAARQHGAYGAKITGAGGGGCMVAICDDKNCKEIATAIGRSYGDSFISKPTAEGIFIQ
Chain of Corynebacterium variabile mevalonate kinase (cva), wild type, SEQ ID NO:3, N-terminal His-tag (A0A0X2NLH5 entry or part of it): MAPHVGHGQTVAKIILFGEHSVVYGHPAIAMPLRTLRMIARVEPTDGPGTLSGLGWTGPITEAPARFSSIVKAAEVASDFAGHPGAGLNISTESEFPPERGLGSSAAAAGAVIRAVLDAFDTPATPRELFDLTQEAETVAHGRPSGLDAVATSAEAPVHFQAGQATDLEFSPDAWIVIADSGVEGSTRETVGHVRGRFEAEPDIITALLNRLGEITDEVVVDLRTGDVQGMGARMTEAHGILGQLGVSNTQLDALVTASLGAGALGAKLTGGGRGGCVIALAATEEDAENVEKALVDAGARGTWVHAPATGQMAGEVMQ

Row | Enzyme activity with 1 mM DPM [3] [dABS/min] | Enzyme activity with 1 mM DPM [4] [dABS/min] | Enzyme activity with 1 mM DPM [5] [dABS/min] | Enzyme activity with 1 mM DPM ([6]; 1 mM DPM, control 0.1604) [dABS/min] | Inhibition by DPM ([6]; 1 mM diphosphomevalonate) | Enzyme activity with 1 mM DPM [7] [dABS/min] | DPM-induced inhibition [8] | Enzyme activity with 1 mM DPM [9] [dABS/min] | Structure (SMILES) | Affinity [1] | Affinity [2]
1 |  |  |  |  |  |  |  |  | Nc1ncnc2c1ncn2[C@@H]1O[C@H](COP(=O)(O)OP(=O)(O)OP(=O)(O)O)[C@@H](O)[C@H]1O [ATP] | higher affinity | higher affinity
2 | 0.156 | 0.07555 | 0.1353 | 0.1368 | Slight inhibitory activity | 0.0984 | inhibition is not observed | 0.2 | CC(O)(CCOP(=O)(O)OP(=O)(O)O)CC(=O)O (racemic) [DPM, (±)-mevalonic acid 5-diphosphate tetralithium salt] |  | 
